Assay [1] deals with pancreatic β cell (MIN6 cell). As to the kind of experiment: Inhibition of binding of [3H]-labeled Compound 16 to pancreatic β cell. As to conditions: for Binding inhibitory activity (%): test compound 1 μmol/l, 10 nmol/l [3H]-labeled Compound 16, MIN6 cell, 4° C.; for Binding inhibition (%): pancreatic β cells, [3H]-labeled Compound 16, tested substance 1 μmol/l or 10 μmol/l. Further details: species or system murine. Here is the method: MIN6 cell cultured to almost confluence in a 24-well plate for cell culture (manufactured by Corning) was washed twice with KRH buffer (119 mmol/l NaCl, 4.74 mmol/KCl, 2.54 mmol/l calcium chloride (CaCl2), 1.19 mmol/l magnesium sulfate (MgSO4), 1.19 mmol/l potassium dihydrogen phosphate (KH2PO4), 10 mmol/l HEPES, 2 mmol/l glucose, 0.1 w/v % bovine serum albumin (BSA), pH 7.3). Subsequently, the KRH buffer was added at 1 ml per well, for preincubation at 37° C. for 45 minutes. After preincubation, the supernatant was discarded, and 0.15 ml of the KRH buffer, […] at 4° C. for one hour or longer until the reaction reached equilibrium. Subsequently, the cell was washed twice using the KRH buffer. The KRH buffer was added at 2 ml per well, which was then left to stand at room temperature for 20 minutes. The cell was again washed twice by using the KRH buffer. The radioactivity remaining in each well was counted with a liquid scintillation counter to determine the binding amount.
The difference between the binding amount of the [^3H]-labeled Compound 16 (total binding amount) under conditions with no addition of any test compound and the binding amount of the [^3H]-labeled Compound 16 (non-specific binding amount) under conditions in the presence of the Compound 16 at 10 μmol/l was defined as specific binding amount.
According to the method described in Example 5, a substance having anti-diabetic activity was screened for, using the inhibitory activity of the binding between pancreatic β cells and [^3H]-labeled Compound 16. A tested substance was dissolved in dimethylsulfoxide and then added to give a final concentration of 1 μmol/l. The radioactivity with addition of the unlabeled Compound 16 was defined as the non-specific binding amount and the radioactivity without addition of the unlabeled Compound 16 was defined as the total binding amount, and then the individual specific binding amounts were calculated by the method described in Example 6. Using the following formula, the binding inhibition ratio was determined. [formula]

The test system of assay [2] is MIN6 cell. As to the kind of experiment: Insulin secretion test using MIN6 cell. In kind it is cell-based, murine. As to conditions: for Insulin secretory activity (%): MIN6 cell, glucose 14.5 mmol/l or 8.4 mmol/l; for Insulin secretion-promoting activity (%): 10 μmol/l. Here is the method:
Culturing MIN6 cell and testing insulin secretion using MIN6 cell were carried out according to the method described in Diabetorogia, 36, 1139-1145 (1993).
In other words, the influence of a compound on the insulin secretion activity in the presence of 14.5 mmol/l glucose was assessed by assaying the amount of insulin in the cell culture supernatant collected as follows.
The MIN6 cell cultured in a 24-well plate was washed twice with 1 ml of buffer A [119 mmol/l NaCl, 4.74 mmol/l KCl, 2.54 mmol/l CaCl2, 1.19 mmol/l MgSO4, 1.19 mmol/l KH2PO4, 10 mmol/l 2-[4-(2-hydroxylethyl)-1-piperadinyl]ethanesulfonic acid, 0.1% BSA, pH 7.3] containing 2 mmol/l glucose. Subsequently, the resulting cell was incubated in 1 ml of the buffer A containing 2 mmol/l glucose at 37° C. for 45 minutes. The culture supernatant was exchanged with the buffer A (1 ml) containing test compounds of various concentrations and 8.4 mmol/l glucose and incubated at 37° C. for 45 minutes to collect the culture supernatant.
Antibody-reactive insulin secreted in the culture supernatant was assayed by radioimmunoassay [Methods in Investigative and Diagnostic Endocrinology, Vol. 2A, 2B, North-Holland Publishing Co., Amsterdam (1973)] after the culture supernatant was diluted with phosphate buffer containing 1% BSA, 0.1% Tween 20, 0.12% EDTA 2Na, and 0.1% sodium azide. A standard curve was prepared by using human insulin as the standard substance, and individual insulin values were calculated on the basis of the curve.

Where [3] appears, read: promoted insulin secretion level of Compound 16 = 100%.

With `CCCN1C(=O)N2CC(Cc3ccccc3)N=C2c2[nH]c(C3CCCO3)nc21` (centres unmarked) [compound 144], the “Binding inhibitory activity (%)” value in assay [1] stood at 50.5%. Besides, the “Insulin secretory activity (%)” value in assay [2] is 28.5%.
For `CCCN1C(=O)N2CC(Cc3ccccc3)N=C2c2[nH]c(C3CCC(O)CC3)nc21` (centres unmarked) [compound 147], in that order: 56.8% and 45.6%.
As for `CNc1nc(NC(C)(C)C)nc(NC(C)(C)C)n1` [compound 193], the “inhibition ratio (binding of [3H]-labeled Compound 16 to pancreatic β cells)” value in assay [1] (at 10 μmol/l) came to 84%. The “Binding inhibition (%)” value in assay [1] is 84.0%. Besides, in assay [2] (setting [3]), the “Insulin secretion-promoting activity (%)” value is 194.8% and the “promoted insulin secretion level” value amounted to 195%.
Turning to `O=C1N2CC(Cc3ccccc3)N=C2c2[nH]c(C3CCCC3)nc2N1c1ccccc1` (centres unmarked) [compound 85], the “Binding inhibitory activity (%)” value in assay [1] is 72.0%. In addition, the “Insulin secretory activity (%)” value in assay [2] was 26.7%.
For `CCCN1C(=O)N2CC(Cn3cncn3)N=C2c2[nH]c(C3CCCC3)nc21` (centres unmarked) [compound 116], in that order: 7.9% and −1.7%.
For `CN1C(=O)N2CC(Cc3ccccc3)N=C2c2[nH]c(C3CCCC3)nc21` (centres unmarked) [compound 84], in that order: 66.4% and 31.7%.
In the same order, the values of `CCCc1nc2c([nH]1)C1=NC(Cc3ccc(C#N)cc3)CN1C(=O)N2CCC` (centres unmarked) [compound 185] are 38.4% and 30.7%.
As to `CN(C)c1nc(NC(C)(C)C)nc(NC(C)(C)C)n1` [compound 198], the “Binding inhibition (%)” value in assay [1] is 99.0%. Further, the “Insulin secretion-promoting activity (%)” value in assay [2] (setting [3]) was 30.6%.
For the compound `CCCN1C(=O)N2CC(Cc3ccccc3)N=C2c2[nH]c(C)nc21` (centres unmarked) [compound 183], in assay [1], the “Binding inhibitory activity (%)” value was 41.6%. Also, the “Insulin secretory activity (%)” value in assay [2] worked out at 22.5%.
In the same order, the values of `CCCc1nc2c([nH]1)C1=NC(Cc3ccccc3)CN1C(=O)N2CCC` (centres unmarked) [compound 184] are 78.5% and 75.0%.
In the case of `CCCN1C(=O)N2CC(Cc3ccccc3)N=C2c2[nH]c(CC3CCCC3)nc21` (centres unmarked) [compound 40], in assay [1], the “Binding inhibitory activity (%)” value is listed as 38.5%. For the same compound, the “Insulin secretory activity (%)” value in assay [2] was 76.3%.
In the same order, the values of `CCCN1C(=O)N2CC(Cc3ccccc3)N=C2c2[nH]c(C(C)C)nc21` (centres unmarked) [compound 41] are 55.0% and 37.2%.
With `O=C1N2CC(Cc3ccccc3)N=C2c2[nH]c(C3CCCC3)nc2N1Cc1ccc(F)cc1` (centres unmarked) [compound 175], the “Binding inhibitory activity (%)” value in assay [1] was 49.5%. In addition, the “Insulin secretory activity (%)” value in assay [2] worked out at 54.7%.
For `CCCN1C(=O)N2CC(CCc3ccccc3)N=C2c2[nH]c(C3CCCC3)nc21` (centres unmarked) [compound 31], in that order: 112.4% and 80.5%.
In the same order, the values of `CCCN1C(=O)N2CC(Cc3ccccc3)N=C2c2[nH]c(COCC)nc21` (centres unmarked) [compound 138] are 60.7% and 7.8%.
As for `C1=CC2N=CN(c3nc(-n4cnc5ccccc54)nc(-n4cnc5ccccc54)n3)C2C=C1` (centres unmarked) [compound 197], the “Binding inhibition (%)” value in assay [1] is 15.0%. In addition, the “Insulin secretion-promoting activity (%)” value in assay [2] (setting [3]) is listed as 31.9%.
In the case of `CCCN1C(=O)N2CC(Cc3ccccc3)N=C2c2[nH]c(C3CCC3)nc21` (centres unmarked) [compound 37], the “Binding inhibitory activity (%)” value in assay [1] turned out to be 73.7%. Further, in assay [2], the “Insulin secretory activity (%)” value stood at 61.0%.
Consider `CCCN1C(=O)N2CC(Cc3ccc(C(=O)O)cc3)N=C2c2[nH]c(C3CCCC3)nc21` (centres unmarked) [compound 188], for which the “Binding inhibitory activity (%)” value in assay [1] was −7.6%. Moreover, the “Insulin secretory activity (%)” value in assay [2] is given as −8.0%.
For the compound `CCCN1C(=O)N2CC(Cc3cccc(C)c3)N=C2c2[nH]c(C3CCCC3)nc21` (centres unmarked) [compound 61], the “Binding inhibitory activity (%)” value in assay [1] amounted to 50.8%. Moreover, in assay [2], the “Insulin secretory activity (%)” value amounted to 80.4%.
For `CCCN1C(=O)N2CC(Cc3ccccc3)N=C2c2[nH]c(C3CCCCC3)nc21` (centres unmarked) [compound 38], in that order: 71.8% and 83.0%.
In the same order, the values of `CCCN1C(=O)N2CC(Cn3cccc3)N=C2c2[nH]c(C3CCCC3)nc21` (centres unmarked) [compound 117] are 68.6% and 43.5%.
For `CCCN1C(=O)N2CC(Cc3ccc(O)cc3)N=C2c2[nH]c(C3CCCC3)nc21` (centres unmarked) [compound 76], in that order: 12.6% and 16.9%.
`CCCN1C(=O)N2CC(Cc3ccccc3)N=C2c2[nH]c(C(C)(C)C)nc21` (centres unmarked) [compound 43]: the “Binding inhibitory activity (%)” value in assay [1] stood at 77.6%. Also, the “Insulin secretory activity (%)” value in assay [2] is listed as 54.4%.
For `O=C1N2CC(Cc3ccccc3)N=C2c2[nH]c(C3CCCC3)nc2N1CCCO` (centres unmarked) [compound 189], in that order: 56.4% and 44.9%.
For `CCCN1C(=O)N2CC(Cc3ccccc3)N=C2c2[nH]c(C3CC3)nc21` (centres unmarked) [compound 36], in that order: 57.9% and 47.0%.
For the compound `CC(C)(C)Nc1nc(NC(C)(C)C)nc(N2CCOCC2)n1` [compound 194], in assay [1], the “Binding inhibition (%)” value is 78.1%. In addition, in assay [2] (setting [3]), the “Insulin secretion-promoting activity (%)” value worked out at 122.7%.
Consider `CCCN1C(=O)N2CC(Cc3ccc(F)cc3)N=C2c2[nH]c(C3CCCC3)nc21` (centres unmarked) [compound 187], for which the “Binding inhibitory activity (%)” value in assay [1] was determined as 73.5%. Further, the “Insulin secretory activity (%)” value in assay [2] worked out at 85.0%.

The values are drawn from patent US20070191402A1, “Method of searching substrate having antidiabetic activity” (KYOWA HAKKO KOGYO CO., LTD., priority 2002, published 2007).
